Series [1] addresses T1, Solute carrier organic anion transporter family member 1B2 (Rattus norvegicus, UniProt Q9QZX8).
T1 sequence (Q9QZX8 whole entry): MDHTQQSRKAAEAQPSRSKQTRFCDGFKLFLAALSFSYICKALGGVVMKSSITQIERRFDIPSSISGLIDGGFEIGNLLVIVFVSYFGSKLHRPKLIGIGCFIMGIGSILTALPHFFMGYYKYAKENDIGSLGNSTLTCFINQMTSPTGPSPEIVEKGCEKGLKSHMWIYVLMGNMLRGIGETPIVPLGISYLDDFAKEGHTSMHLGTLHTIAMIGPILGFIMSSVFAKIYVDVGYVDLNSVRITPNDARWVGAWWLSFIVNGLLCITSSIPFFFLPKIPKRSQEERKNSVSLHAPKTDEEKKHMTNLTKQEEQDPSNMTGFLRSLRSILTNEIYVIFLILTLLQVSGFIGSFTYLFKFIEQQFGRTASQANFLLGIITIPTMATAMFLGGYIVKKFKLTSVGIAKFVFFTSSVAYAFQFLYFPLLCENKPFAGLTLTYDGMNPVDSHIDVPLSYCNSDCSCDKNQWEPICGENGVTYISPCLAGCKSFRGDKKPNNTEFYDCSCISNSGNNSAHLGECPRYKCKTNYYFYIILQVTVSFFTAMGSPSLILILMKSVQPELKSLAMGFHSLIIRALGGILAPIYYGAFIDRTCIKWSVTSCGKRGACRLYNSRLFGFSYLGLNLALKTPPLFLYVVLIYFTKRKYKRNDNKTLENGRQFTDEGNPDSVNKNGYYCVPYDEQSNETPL
The series is described as follows: (§1) TP_TRANSPORTER: inhibition of taurocholate uptake (taurocholate: 10 uM) in Xenopus laevis oocytes. The format is functional, cell-based. The following applies: oocyte.

For series [2], the target named is T2, Solute carrier organic anion transporter family member 1A4 (Rattus norvegicus, UniProt O35913).
T2 sequence (O35913 whole entry): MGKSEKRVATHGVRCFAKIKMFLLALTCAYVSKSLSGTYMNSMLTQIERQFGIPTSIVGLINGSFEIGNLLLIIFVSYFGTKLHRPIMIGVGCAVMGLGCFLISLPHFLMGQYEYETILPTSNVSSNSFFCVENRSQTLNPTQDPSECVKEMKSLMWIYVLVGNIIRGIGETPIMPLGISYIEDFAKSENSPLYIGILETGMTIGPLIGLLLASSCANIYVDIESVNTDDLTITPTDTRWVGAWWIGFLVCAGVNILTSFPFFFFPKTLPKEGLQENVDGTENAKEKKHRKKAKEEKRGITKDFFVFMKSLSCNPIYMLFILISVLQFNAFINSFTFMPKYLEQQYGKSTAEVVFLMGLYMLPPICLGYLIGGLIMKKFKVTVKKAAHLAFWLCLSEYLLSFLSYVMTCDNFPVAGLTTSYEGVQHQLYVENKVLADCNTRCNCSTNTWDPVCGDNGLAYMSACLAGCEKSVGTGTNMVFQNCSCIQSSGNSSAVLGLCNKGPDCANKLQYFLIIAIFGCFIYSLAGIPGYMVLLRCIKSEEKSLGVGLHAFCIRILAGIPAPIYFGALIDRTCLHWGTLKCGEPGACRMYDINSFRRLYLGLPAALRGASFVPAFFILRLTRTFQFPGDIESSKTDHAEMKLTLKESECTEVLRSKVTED
Described as §1. Type of series: functional, cell-based. The following applies: oocyte.

Series [3] deals with T3, Solute carrier organic anion transporter family member 1A1 (Rattus norvegicus, UniProt P46720).
T3 sequence (P46720 whole entry): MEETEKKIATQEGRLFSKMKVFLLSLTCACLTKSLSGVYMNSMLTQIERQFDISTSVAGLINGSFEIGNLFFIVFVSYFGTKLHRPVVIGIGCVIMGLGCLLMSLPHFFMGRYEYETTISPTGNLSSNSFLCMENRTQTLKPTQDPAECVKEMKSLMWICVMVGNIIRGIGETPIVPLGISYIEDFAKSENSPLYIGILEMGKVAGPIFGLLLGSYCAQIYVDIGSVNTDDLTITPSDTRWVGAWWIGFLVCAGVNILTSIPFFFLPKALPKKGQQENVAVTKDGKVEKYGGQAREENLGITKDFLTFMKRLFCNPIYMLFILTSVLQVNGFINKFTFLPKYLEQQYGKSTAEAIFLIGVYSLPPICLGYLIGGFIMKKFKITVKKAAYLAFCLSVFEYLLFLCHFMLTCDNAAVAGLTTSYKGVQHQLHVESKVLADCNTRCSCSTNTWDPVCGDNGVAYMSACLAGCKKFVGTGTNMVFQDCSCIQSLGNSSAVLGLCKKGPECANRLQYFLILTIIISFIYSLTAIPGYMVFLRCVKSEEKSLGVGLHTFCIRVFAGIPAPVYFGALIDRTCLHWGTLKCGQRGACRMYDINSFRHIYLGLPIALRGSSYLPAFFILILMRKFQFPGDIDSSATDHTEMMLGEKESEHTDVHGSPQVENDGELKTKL
The description is as §1. The following applies: oocyte. Type of series: functional, cell-based.

The target in series [4] is T4, Hepatic sodium/bile acid cotransporter (Rattus norvegicus, UniProt P26435).
T4 sequence (P26435 whole entry): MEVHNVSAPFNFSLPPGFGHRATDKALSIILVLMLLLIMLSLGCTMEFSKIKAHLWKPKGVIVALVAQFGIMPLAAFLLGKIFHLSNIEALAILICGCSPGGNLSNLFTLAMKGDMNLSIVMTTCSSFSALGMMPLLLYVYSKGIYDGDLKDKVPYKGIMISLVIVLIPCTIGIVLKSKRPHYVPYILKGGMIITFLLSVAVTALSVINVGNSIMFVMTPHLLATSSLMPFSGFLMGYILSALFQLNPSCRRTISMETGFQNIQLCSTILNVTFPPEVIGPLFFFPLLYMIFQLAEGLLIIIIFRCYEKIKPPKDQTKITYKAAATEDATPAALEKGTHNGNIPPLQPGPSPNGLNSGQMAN
The description is as §1. The format is functional, cell-based. The following applies: oocyte.

In series [5] the target is T5, Solute carrier organic anion transporter family member 2B1 (Homo sapiens, UniProt O94956).
T5 sequence (O94956 whole entry): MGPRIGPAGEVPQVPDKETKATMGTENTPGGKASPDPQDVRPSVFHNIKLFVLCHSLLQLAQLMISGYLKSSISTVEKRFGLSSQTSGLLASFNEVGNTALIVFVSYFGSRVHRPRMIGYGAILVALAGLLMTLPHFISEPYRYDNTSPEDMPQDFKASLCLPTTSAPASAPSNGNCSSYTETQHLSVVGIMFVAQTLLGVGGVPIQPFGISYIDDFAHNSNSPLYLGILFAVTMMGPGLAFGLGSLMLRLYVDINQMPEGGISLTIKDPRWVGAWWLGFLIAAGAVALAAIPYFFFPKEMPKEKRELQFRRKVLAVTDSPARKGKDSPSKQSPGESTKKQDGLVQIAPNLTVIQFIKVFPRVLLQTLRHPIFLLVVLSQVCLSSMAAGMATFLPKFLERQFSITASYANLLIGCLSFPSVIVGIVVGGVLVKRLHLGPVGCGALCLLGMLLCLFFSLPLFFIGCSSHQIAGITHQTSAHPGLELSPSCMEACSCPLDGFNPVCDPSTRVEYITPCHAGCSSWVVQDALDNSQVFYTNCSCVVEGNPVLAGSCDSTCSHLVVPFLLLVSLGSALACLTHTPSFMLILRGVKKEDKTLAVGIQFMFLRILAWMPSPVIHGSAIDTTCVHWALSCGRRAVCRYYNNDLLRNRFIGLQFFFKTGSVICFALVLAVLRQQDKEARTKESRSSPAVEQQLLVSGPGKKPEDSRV
Briefly: (§2) TP_TRANSPORTER: uptake in Xenopus laevis oocytes. The format is functional, cell-based. The note with it: oocyte.

Series [6] has as its target T2, Solute carrier organic anion transporter family member 1A4. The series is described as §2. Type of series: functional, cell-based. The following applies: oocyte.
Series [7] deals with T3, Solute carrier organic anion transporter family member 1A1. The description is as §2. The following applies: oocyte. The format is functional, cell-based.
Series [8] concerns the target T4, Hepatic sodium/bile acid cotransporter. The series is described as §2. The format is functional, cell-based. The following applies: oocyte.
Series [9] addresses T6, Solute carrier organic anion transporter family member 1B1 (OATP1B1) (Homo sapiens, UniProt Q9Y6L6).
T6 sequence (Q9Y6L6 whole entry): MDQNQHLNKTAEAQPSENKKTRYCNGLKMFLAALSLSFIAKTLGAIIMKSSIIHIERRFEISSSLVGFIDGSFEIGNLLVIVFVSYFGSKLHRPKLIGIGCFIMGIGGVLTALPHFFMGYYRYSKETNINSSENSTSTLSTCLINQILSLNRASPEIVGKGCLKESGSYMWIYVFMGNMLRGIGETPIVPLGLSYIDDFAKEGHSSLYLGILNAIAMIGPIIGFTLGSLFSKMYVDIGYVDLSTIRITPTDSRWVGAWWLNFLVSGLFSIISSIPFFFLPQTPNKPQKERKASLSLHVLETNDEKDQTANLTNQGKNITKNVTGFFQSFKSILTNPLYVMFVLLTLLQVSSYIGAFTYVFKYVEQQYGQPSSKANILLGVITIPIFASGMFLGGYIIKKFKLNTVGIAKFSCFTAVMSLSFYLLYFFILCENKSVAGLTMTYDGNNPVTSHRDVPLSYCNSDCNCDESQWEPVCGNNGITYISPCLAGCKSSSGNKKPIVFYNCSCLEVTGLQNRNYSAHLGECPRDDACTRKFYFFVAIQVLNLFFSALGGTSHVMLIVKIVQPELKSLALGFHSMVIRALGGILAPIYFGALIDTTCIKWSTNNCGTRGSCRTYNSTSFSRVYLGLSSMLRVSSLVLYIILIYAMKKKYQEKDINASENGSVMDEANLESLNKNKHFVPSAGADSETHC
The description is as §2. Type of series: functional, cell-based, Oocyte. The following applies: Xenopus laevis oocytes expressing the transporter.

Series [10] has as its target T7, Solute carrier organic anion transporter family member 1B3 (OATP1B3) (Homo sapiens, UniProt Q9NPD5).
T7 sequence (Q9NPD5 whole entry): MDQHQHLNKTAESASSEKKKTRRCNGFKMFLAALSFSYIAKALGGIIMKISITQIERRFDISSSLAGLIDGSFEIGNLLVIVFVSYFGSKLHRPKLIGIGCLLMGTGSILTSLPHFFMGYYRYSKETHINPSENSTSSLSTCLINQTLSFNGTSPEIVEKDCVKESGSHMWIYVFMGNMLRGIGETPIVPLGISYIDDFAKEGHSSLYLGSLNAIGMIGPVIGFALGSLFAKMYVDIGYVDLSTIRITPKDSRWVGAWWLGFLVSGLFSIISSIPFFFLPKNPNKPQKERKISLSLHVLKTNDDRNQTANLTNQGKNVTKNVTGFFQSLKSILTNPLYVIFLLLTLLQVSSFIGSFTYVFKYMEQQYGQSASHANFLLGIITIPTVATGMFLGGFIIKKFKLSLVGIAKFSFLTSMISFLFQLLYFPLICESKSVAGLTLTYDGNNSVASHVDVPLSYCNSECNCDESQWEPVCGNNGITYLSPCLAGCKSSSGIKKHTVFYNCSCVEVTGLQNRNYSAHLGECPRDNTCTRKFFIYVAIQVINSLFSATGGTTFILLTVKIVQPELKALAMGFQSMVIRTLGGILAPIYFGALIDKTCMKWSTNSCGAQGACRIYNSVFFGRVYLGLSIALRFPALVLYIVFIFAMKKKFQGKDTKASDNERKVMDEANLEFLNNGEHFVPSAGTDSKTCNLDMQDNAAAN
Described as §2. The format is functional, cell-based, Oocyte. The note with it: Xenopus laevis oocytes expressing the transporter.

The target in series [11] is T8, Solute carrier organic anion transporter family member 1B2 (OATP1B2) (Rattus norvegicus, UniProt Q9QZX8).
T8 sequence (Q9QZX8 whole entry): T1 sequence (Q9QZX8 whole entry)
The series is described as §2. Type of series: functional, cell-based, Oocyte. The note with it: Xenopus laevis oocytes expressing the transporter.

Molecules are shown by their SMILES. Starred links: 1 amine or outer side, 2 acyl side, 3 side chain; linkers in the order of their positions; H or OH if unused. Positions of bridges follow the written chain, without caps; N, C: chain ends. Non-standard residues stand in square brackets, D forms with d. Residues, ends and D or L forms follow the SMILES beside them. Trp(2-yl) = O=C([C@H](Cc1c([*:3])[nH]c2ccccc12)N[*:1])[*:2]; Leu(4R-OH,5-OH) = C[C@](O)(CO)C[C@H](N)C(=O)O; cisHyp = O=C(O)[C@@H]1C[C@H](O)CN1

Take `C[C@@H]1NC(=O)[C@H](C[C@@](C)(O)CO)NC(=O)[C@@H]2Cc3c([nH]c4ccccc34)SC[C@H](NC(=O)[C@@H]([C@H](C)O)NC1=O)C(=O)N1C[C@@H](O)C[C@H]1C(=O)N[C@@H](C)C(=O)N2` [PHALLOIDIN] (cyclo(A[dT]C[cisHyp]A[Trp(2-yl)][Leu(4R-OH,5-OH)]); thioether 3-6): the Activity result in series [1] is “inhibitor [+]”; in series [2], “is not an inhibitor [-]”; in series [3], “is not an inhibitor [-]”; in series [4], “is not an inhibitor [-]”.

By Km is commonly meant the concentration of substrate that gives half-maximal velocity. Take `CC(O)C[C@@H]1NC(=O)[C@@H]2Cc3c([nH]c4ccccc34)SC[C@@H](NC(=O)[C@H]([C@@H](C)O)NC(=O)[C@H](C)NC1=O)C(=O)N1C[C@H](O)C[C@H]1C(=O)N[C@@H](C)C(=O)N2` (stereo partly specified) [DEMETHYLPHALLOIN]: the Activity entry in series [5], in series [6], in series [7] and in series [8] was “is not a substrate [-]” throughout. Further, the Km in [9] is 17 µM; in [10], 7.5 µM; in [11], 5.7 µM.

Values taken from ChEMBL document CHEMBL2074297, “Identification of phalloidin uptake systems of rat and human liver” (Biochim Biophys Acta, 2004).
